This passage reports IC50 results from BindingDB's records for doi:10.1021/acs.jmedchem.5b01008 (Pfizer, 2015).

Assay [1] has as its target 2-acylglycerol O-acyltransferase 3 (MGAT3, MOGAT3) (Homo sapiens) (UniProt Q86VF5). Nature of the assay: Inhibition of MGAT3 (unknown origin) assessed effect on incorporation of [1-14C]decanoyl moiety into triacylglycerol using [1-14C]decanoyl-CoA and 1,2-didecanoyl-sn-glycerol as substrates pre-incubated for 30 mins before substrate addition.
For assay [2] the target is unchanged. Nature of the assay: Inhibition of human MGAT3 expressed in HEK293 cells assessed as effect on incorporation of [1,3-14C] glycerol into TAG by TLC method in presence of DGAT1 inhibitor PF-04620110 and DGAT2 inhibitor PF-06424439.
Assay [3] addresses 2-acylglycerol O-acyltransferase 1 (MGAT1, MOGAT1) (Homo sapiens) (UniProt Q96PD6). Nature of the assay: Inhibition of MGAT1 (unknown origin) assessed as effect on incorporation of [1-14C]decanoyl moiety into DAG using [1-14C]decanoyl-CoA and 2-oleoylglycerol as substrates.

The structures appear in SMILES notation. “And” between values parts separate entries of the source, which are not always exact repeats. Equal entries are not always repeated. Some results are limits rather than exact numbers.

2-acylglycerol O-acyltransferase 1 (MGAT1, MOGAT1) (Homo sapiens), sequence (Q96PD6 whole entry, looked up): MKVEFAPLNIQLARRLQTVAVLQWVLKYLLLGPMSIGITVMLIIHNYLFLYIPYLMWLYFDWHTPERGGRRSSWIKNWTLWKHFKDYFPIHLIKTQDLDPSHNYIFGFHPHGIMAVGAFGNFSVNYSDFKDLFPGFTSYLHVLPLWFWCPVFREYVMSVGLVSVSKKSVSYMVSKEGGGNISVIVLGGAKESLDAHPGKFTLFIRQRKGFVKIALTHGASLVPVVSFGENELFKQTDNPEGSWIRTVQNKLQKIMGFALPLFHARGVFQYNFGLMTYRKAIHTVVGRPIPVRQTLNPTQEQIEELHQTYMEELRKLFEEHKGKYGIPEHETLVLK
2-acylglycerol O-acyltransferase 3 (MGAT3, MOGAT3) (Homo sapiens), sequence (Q86VF5 whole entry, looked up): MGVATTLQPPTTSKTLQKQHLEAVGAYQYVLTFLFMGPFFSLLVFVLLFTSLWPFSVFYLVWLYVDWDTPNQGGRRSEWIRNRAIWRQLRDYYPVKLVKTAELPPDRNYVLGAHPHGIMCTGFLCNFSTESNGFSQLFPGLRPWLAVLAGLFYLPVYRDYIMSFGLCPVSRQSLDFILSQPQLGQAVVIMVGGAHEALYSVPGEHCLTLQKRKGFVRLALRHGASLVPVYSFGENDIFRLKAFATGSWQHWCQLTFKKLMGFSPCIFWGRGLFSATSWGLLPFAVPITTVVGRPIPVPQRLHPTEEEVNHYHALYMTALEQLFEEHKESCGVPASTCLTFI

As for `COc1cccc(CC(=O)N2Cc3ccc(S(=O)(=O)Nc4cnn(C5COC5)n4)cc3C2)c1`, the IC50 in assay [1] was 365 nM and 398 nM. Still for that read-out and setting: the figure for `COc1cccc(CC(=O)N2Cc3ccc(S(=O)(=O)Nc4cnn(C(C)C)n4)cc3C2)c1` is 597 nM and 631 nM. The same measure, in the same setting: the figure for `COc1cccc(CC(=O)N2Cc3ccc(S(=O)(=O)Nc4cnn(-c5ccccc5)n4)cc3C2)c1` is 6 nM. As to `COc1cccc(CC(=O)N2Cc3ccc(S(=O)(=O)Nc4cnn(C5CCC5)n4)cc3C2)c1`, the IC50 in assay [2] was 205 nM and 204 nM; in assay [3] it was 14900 nM and 14800 nM; in assay [1] it was 92 nM and 100 nM. Take `COc1cccc(CC(=O)N2Cc3ccc(S(=O)(=O)NCCc4cccc(F)c4)cc3C2)c1`: the IC50 is more than 40000 nM in assay [3]; 682 nM and 631 nM in assay [1]. Turning to `COc1cccc(CC(=O)N2Cc3ccc(S(=O)(=O)N(C)CCc4cccc(F)c4)cc3C2)c1`, the IC50 in assay [1] is 2740 nM and 2510 nM. Same read-out and setting: the figure for `COc1cccc(CC(=O)N2Cc3ccc(S(=O)(=O)Nc4cnn(-c5ccc(F)cc5)n4)cc3C2)c1` is 6 nM; for `COc1cccc(CC(=O)N2Cc3ccc(S(=O)(=O)Nc4cnn(C)n4)cc3C2)c1` it is 3840 nM and 3980 nM. Turning to `COc1cccc(CC(=O)N2Cc3ccc(S(=O)(=O)Nc4cnn(C5CC(F)(F)C5)n4)cc3C2)c1`, in assay [2], the IC50 was 394 nM and 389 nM.

For orientation: IC50 means the concentration that gives 50% inhibition.
